According to PubChem BioAssay AID1918938 (Molecular Pharmacology Branch, DTP, NCI, 2023):

Tested on: 556581-035-R-J1-PDC complex spheroid viability
Test: Anticancer human tumor 556581-035-R-J1-PDC patient-derived ovarian carcinoma cell line growth inhibition
Conditions: for IC50: curve of first compound; for viability, T/C: stronger effect = lower value
Outline: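 Complex spheroids of tumor cells with HUVEC and human MSCs, exposed to iadademstat combined with other agents. Each agent tested in half-log steps from near clinical Cmax (else 10 microM top), DMSO ≤0.25%.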

[1] = second compound 0.1 µM, first compound 0.00949 µM
[2] = second compound 0.1 µM, first compound 0.03 µM
[3] = second compound 0.1 µM, first compound 0.0949 µM
[4] = second compound 0.1 µM, first compound 0.3 µM
[5] = second compound 0.316 µM, first compound 0.00949 µM
[6] = second compound 0.316 µM, first compound 0.03 µM
[7] = second compound 0.316 µM, first compound 0.0949 µM
[8] = second compound 0.316 µM, first compound 0.3 µM
[9] = second compound 1 µM, first compound 0.00949 µM
[10] = second compound 1 µM, first compound 0.03 µM
[11] = second compound 1 µM, first compound 0.0949 µM
[12] = second compound 1 µM, first compound 0.3 µM
[13] = second compound 3.16 µM, first compound 0.00949 µM
[14] = second compound 3.16 µM, first compound 0.03 µM
[15] = second compound 3.16 µM, first compound 0.0949 µM
[16] = second compound 3.16 µM, first compound 0.3 µM
[17] = second compound 10 µM, first compound 0.00949 µM
[18] = second compound 10 µM, first compound 0.03 µM
[19] = second compound 10 µM, first compound 0.0949 µM
[20] = second compound 10 µM, first compound 0.3 µM
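Also: spheroids exposed to agents for seven days.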
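For viability, T/C in this document: 100% = DMSO vehicle control wells.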

Work on `CCN(c1cc(-c2ccc(CN3CCOCC3)cc2)cc(C(=O)NCc2c(C)cc(C)[nH]c2=O)c1C)C1CCOCC1` + NC1CCC(NC2CC2c2ccccc2)CC1 yielded an IC50 (second compound 0.1 µM) of 1690 nM, an IC50 (second compound 0.316 µM) of over 3000 nM and an IC50 (second compound 1 µM) of 2270 nM. It also gave an IC50 (second compound 3.16 µM) of over 3000 nM, an IC50 (second compound 10 µM) of 1620 nM and a viability, T/C [1] of 89.1%. The viability, T/C [2] was 97%, the viability, T/C [3] was 100% and the viability, T/C [4] was 81.3%. The viability, T/C (second compound 0.1 µM, first compound 0.949 µM) was 59.1%, the viability, T/C (second compound 0.1 µM, first compound 3 µM) was 41.7% and the viability, T/C [5] was 84.5%. The viability, T/C [6] was 91.7%, the viability, T/C [7] was 93.9% and the viability, T/C [8] was 85.6%. For the same molecule, the viability, T/C (second compound 0.316 µM, first compound 0.949 µM) was 55%, the viability, T/C (second compound 0.316 µM, first compound 3 µM) was 50.6% and the viability, T/C [9] was 90.7%. For the same molecule, the viability, T/C [10] was 93%, the viability, T/C [11] was 88.5% and the viability, T/C [12] was 77.3%. For the same molecule, the viability, T/C (second compound 1 µM, first compound 0.949 µM) was 57.1%, the viability, T/C (second compound 1 µM, first compound 3 µM) was 47.7% and the viability, T/C [13] was 91.1%. It also gave a viability, T/C [14] of 100%, a viability, T/C [15] of 76.1% and a viability, T/C [16] of 69.8%. The viability, T/C (second compound 3.16 µM, first compound 0.949 µM) was 60.1%, the viability, T/C (second compound 3.16 µM, first compound 3 µM) was 49.5% and the viability, T/C [17] was 82.8%. For the same molecule, the viability, T/C [18] was 88.3%, the viability, T/C [19] was 76.5% and the viability, T/C [20] was 70.6%. For the same molecule, the viability, T/C (second compound 10 µM, first compound 0.949 µM) was 54% and the viability, T/C (second compound 10 µM, first compound 3 µM) was 44.9%.
`Nc1ncn(C2CC(O)C(CO)S2)c(=O)n1` (stereo not given) + NC1CCC(NC2CC2c2ccccc2)CC1 showed an IC50 (second compound 0.1 µM) of 88.3 nM, an IC50 (second compound 0.316 µM) of 98.8 nM and an IC50 (second compound 1 µM) of 91.2 nM. For the same molecule, the IC50 (second compound 3.16 µM) was 85.2 nM, the IC50 (second compound 10 µM) was 76.4 nM and the viability, T/C (second compound 0.1 µM, first compound 0.000949 µM) was 102%. It also gave a viability, T/C (second compound 0.1 µM, first compound 0.003 µM) of 93%, a viability, T/C [1] of 99.5% and a viability, T/C [2] of 69.4%. It also gave a viability, T/C [3] of 52.4%, a viability, T/C [4] of 41.5% and a viability, T/C (second compound 0.316 µM, first compound 0.000949 µM) of 91.5%. It also gave a viability, T/C (second compound 0.316 µM, first compound 0.003 µM) of 94.8%, a viability, T/C [5] of 83.7% and a viability, T/C [6] of 73%. For the same molecule, the viability, T/C [7] was 49.9%, the viability, T/C [8] was 36.6% and the viability, T/C (second compound 1 µM, first compound 0.000949 µM) was 91.2%. For the same molecule, the viability, T/C (second compound 1 µM, first compound 0.003 µM) was 93.3%, the viability, T/C [9] was 79.6% and the viability, T/C [10] was 67%. The viability, T/C [11] was 49.5%, the viability, T/C [12] was 39% and the viability, T/C (second compound 3.16 µM, first compound 0.000949 µM) was 96%. For the same molecule, the viability, T/C (second compound 3.16 µM, first compound 0.003 µM) was 90%, the viability, T/C [13] was 94.6% and the viability, T/C [14] was 67.8%. For the same molecule, the viability, T/C [15] was 51.1%, the viability, T/C [16] was 43.8% and the viability, T/C (second compound 10 µM, first compound 0.000949 µM) was 88.5%. The viability, T/C (second compound 10 µM, first compound 0.003 µM) was 83.2%, the viability, T/C [17] was 71.9% and the viability, T/C [18] was 61.1%. It also gave a viability, T/C [19] of 46% and a viability, T/C [20] of 42.1%.
In the case of `O=C(C=Cn1cnc(-c2cc(C(F)(F)F)cc(C(F)(F)F)c2)n1)NNc1cnccn1` + NC1CCC(NC2CC2c2ccccc2)CC1, the IC50 (second compound 0.1 µM) is reported as 214 nM, the IC50 (second compound 0.316 µM) is reported as 138 nM and the IC50 (second compound 1 µM) is reported as 289 nM. The IC50 (second compound 3.16 µM) was 254 nM, the IC50 (second compound 10 µM) was 340 nM and the viability, T/C (second compound 0.1 µM, first compound 0.00316 µM) was 75.4%. For the same molecule, the viability, T/C (second compound 0.1 µM, first compound 0.01 µM) was 78.2%, the viability, T/C (second compound 0.1 µM, first compound 0.0316 µM) was 78.6% and the viability, T/C (second compound 0.1 µM, first compound 0.1 µM) was 59.9%. The viability, T/C (second compound 0.1 µM, first compound 0.316 µM) was 44.8%, the viability, T/C (second compound 0.1 µM, first compound 1 µM) was 24.6% and the viability, T/C (second compound 0.316 µM, first compound 0.00316 µM) was 81.8%. The viability, T/C (second compound 0.316 µM, first compound 0.01 µM) was 86.2%, the viability, T/C (second compound 0.316 µM, first compound 0.0316 µM) was 78.8% and the viability, T/C (second compound 0.316 µM, first compound 0.1 µM) was 49%. For the same molecule, the viability, T/C (second compound 0.316 µM, first compound 0.316 µM) was 44.1%, the viability, T/C (second compound 0.316 µM, first compound 1 µM) was 25.2% and the viability, T/C (second compound 1 µM, first compound 0.00316 µM) was 76%. It also gave a viability, T/C (second compound 1 µM, first compound 0.01 µM) of 74.7%, a viability, T/C (second compound 1 µM, first compound 0.0316 µM) of 77% and a viability, T/C (second compound 1 µM, first compound 0.1 µM) of 68.2%. For the same molecule, the viability, T/C (second compound 1 µM, first compound 0.316 µM) was 48.6%, the viability, T/C (second compound 1 µM, first compound 1 µM) was 20.1% and the viability, T/C (second compound 3.16 µM, first compound 0.00316 µM) was 75.8%. For the same molecule, the viability, T/C (second compound 3.16 µM, first compound 0.01 µM) was 86.9%, the viability, T/C (second compound 3.16 µM, first compound 0.0316 µM) was 75.5% and the viability, T/C (second compound 3.16 µM, first compound 0.1 µM) was 67.2%. It also gave a viability, T/C (second compound 3.16 µM, first compound 0.316 µM) of 46.2%, a viability, T/C (second compound 3.16 µM, first compound 1 µM) of 25.3% and a viability, T/C (second compound 10 µM, first compound 0.00316 µM) of 67.2%. The viability, T/C (second compound 10 µM, first compound 0.01 µM) was 71.7%, the viability, T/C (second compound 10 µM, first compound 0.0316 µM) was 66.6% and the viability, T/C (second compound 10 µM, first compound 0.1 µM) was 61.8%. The viability, T/C (second compound 10 µM, first compound 0.316 µM) was 53.5% and the viability, T/C (second compound 10 µM, first compound 1 µM) was 17.3%.
